Results as given in patent US20260022143A1, “Cyclic Peptide Inhibitors of IL-23” (JANSSEN PHARMACEUTICA NV, priority 2022, published 2026).
Starred links: 1 amine or outer side, 2 acyl side, 3 side chain; linkers in the order of their positions; H or OH if unused. Positions of bridges follow the written chain, without caps; N, C: chain ends. Non-standard residues stand in square brackets, D forms with d. Residues, ends and D or L forms follow the SMILES beside them. Groups on a side chain read outwards from the residue. *: point of attachment. X48 = CCCCCCCCCCCC(=O)N[C@@H](CCC(=O)*)C(=O)N[C@H](CC(=O)O)C[N+](C)(C)C; X16 = C[N+](C)(C)Cc1cn(-c2ccc(C[C@H](N[*:1])C(=O)[*:2])cc2)nn1; Me3N+(CH2)2O(CH2)2O(CH2)2CO = C[N+](C)(C)CCOCCOCCC(=O)*; CH2CH2OCH2CH2OCH2CH2NMe3+ = C[N+](C)(C)CCOCCOCC*; dTrp(7-Me) = Cc1cccc2c(C[C@@H](N)C(=O)O)c[nH]c12; Trp(7-Me) = Cc1cccc2c(C[C@H](N)C(=O)O)c[nH]c12; 2Nal = N[C@@H](Cc1ccc2ccccc2c1)C(=O)O; AEF = NCCOc1ccc(C[C@H](N)C(=O)O)cc1; 3Pal = N[C@@H](Cc1cccnc1)C(=O)O; Lys(Me) = CNCCCC[C@H](N)C(=O)O; Pen = CC(C)(S)[C@H](N)C(=O)O; X11 = N=C(N)NCCOCCOCCC(=O)*; Thp = NC1(C(=O)O)CCOCC1; X3 = C[N+](C)(C)CCCCC*; AEEA = NCCOCCOCC(=O)O; Sar = CNCC(=O)O

Columns and labels:
[1] = Exposed Polar Surface Area (EPSA); format: physicochemical; details: SFC on Chirex 3014 column; sample 1 mM DMSO stock; read-out: EPSA
Outline: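 Polarity descriptor in Å² derived from retention time using 8 calibration standards re-run every 20 compounds. Duplicate injections of 1 mM DMSO stock; linear 5–60% modifier gradient (20 mM ammonium formate in MeOH) with CO2 at 4 mL/min, 35 °C, on a Chirex 3014 column.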

[2] = biological target: T1, IL-23R (Homo sapiens, UniProt Q5VWK5); assay: IL23R Reporter Assay; format: cell-based; details: HEK293 cells containing IL-23R, IL-12RP1 and STAT-inducible firefly luciferase reporter; 10 ng/mL IL-23 (EC90); 5 h at 37° C.; read-out: IL23R Reporter Assay
T1 construct: host or cells: HEK293
T1 sequence (Q5VWK5 24-629): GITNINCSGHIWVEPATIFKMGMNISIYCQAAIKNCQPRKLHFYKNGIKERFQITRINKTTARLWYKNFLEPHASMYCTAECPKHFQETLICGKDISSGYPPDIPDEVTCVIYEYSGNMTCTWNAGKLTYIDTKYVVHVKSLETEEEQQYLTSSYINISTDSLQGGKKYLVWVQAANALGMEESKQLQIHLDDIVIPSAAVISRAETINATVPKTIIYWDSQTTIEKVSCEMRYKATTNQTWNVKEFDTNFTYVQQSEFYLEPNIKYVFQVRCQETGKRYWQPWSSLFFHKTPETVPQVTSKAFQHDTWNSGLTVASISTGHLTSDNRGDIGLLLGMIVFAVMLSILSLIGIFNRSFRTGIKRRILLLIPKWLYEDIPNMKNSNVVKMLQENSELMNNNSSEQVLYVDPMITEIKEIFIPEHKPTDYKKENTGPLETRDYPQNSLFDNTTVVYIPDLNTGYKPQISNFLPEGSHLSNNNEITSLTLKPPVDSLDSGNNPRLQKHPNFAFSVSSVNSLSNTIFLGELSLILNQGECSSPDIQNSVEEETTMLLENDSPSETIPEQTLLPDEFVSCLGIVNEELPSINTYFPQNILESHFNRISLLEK

Compound	EPSA [1]	IC50 [2]
CCCCCCCCCCCC(=O)N[C@@H](CCC(=O)NCCOCCOCC(=O)NCCOCCOCC(=O)NCCCC[C@@H](NC(C)=O)C(=O)N[C@@H]1C(=O)N[C@@H](CC(N)=O)C(=O)N[C@@H]([C@@H](C)O)C(=O)N[C@H](Cc2c[nH]c3c(C)cccc23)C(=O)N[C@@H](CCCCNC(C)=O)C(=O)N[C@H](C(=O)N[C@@H](Cc2ccc(OCCN)cc2)C(=O)N[C@@H](Cc2ccc3ccccc3c2)C(=O)NC2(C(=O)N[C@@H](CCCCNC(C)=O)C(=O)N[C@@H](CC(N)=O)C(=O)N[C@@H](Cc3cccnc3)C(=O)N(C)CC(N)=O)CCOCC2)C(C)(C)SSC1(C)C)C(=O)N[C@H](CC(=O)O)C[N+](C)(C)C [compound 572, MeCO-canEG2PEG2gE(c)C12-Pen(3)-N-T-7MeW-K(Ac)-Pen(3)-AEF-2Nal-THP-K(Ac)-N-3Pya-Sar-CONH2] (Ac-[dK]([AEEA-AEEA-X48])[Pen]NT[dTrp(7-Me)]K(Ac)[Pen][AEF][2Nal][Thp]K(Ac)N[3Pal][Sar]-NH2; disulfide 2-7)	166 A^2	5.8 nM
CCCCCCCCCCCC(=O)N[C@@H](CCC(=O)NCCOCCOCC(=O)NCCOCCOCC(=O)NCCOCCOCC(=O)NCCOCCOCC(=O)NCCCC[C@H](NC(=O)COCCOCCNC(=O)COCCOCCNC(=O)COCCOCCNC(=O)COCCOCCNC(=O)CC[C@H](NC(=O)CCCCCCCCCCC)C(=O)O)C(=O)NCCOCCOCC(=O)NCCOCCOCC(=O)NCCCC[C@@H](C(N)=O)N(C)C(=O)[C@H](Cc1cccnc1)NC(=O)[C@H](CC(N)=O)NC(=O)[C@H](CCCCN(C)C(C)=O)NC(=O)C1(NC(=O)[C@H](Cc2ccc3ccccc3c2)NC(=O)[C@H](Cc2ccc(OCCCCC[N+](C)(C)C)cc2)NC(=O)[C@H]2NC(=O)[C@H](CCCCNC(C)=O)NC(=O)[C@H](Cc3c[nH]c4c(C)cccc34)NC(=O)[C@H]([C@@H](C)O)NC(=O)[C@H](CC(=O)N(C)C)NC(=O)[C@@H](NC(=O)CCOCCOCC[N+](C)(C)C)C(C)(C)SSC2(C)C)CCOCC1)C(=O)O [compound 409, cPEG3aCO-Pen(3)-N(N(Me)2)-T-7MeW-K(Ac)-Pen(3)-TMAPF-2Nal-THP-K(NMeac)-N-3Pya-NMeK(PEG2PEG2K(PEG2PEG2PEG2PEG2gEC12)2)-CONH2]	198 A^2	47 nM
CC(=O)N(C)CCCC[C@H](NC(=O)C1(NC(=O)[C@H](Cc2ccc3ccccc3c2)NC(=O)[C@H](Cc2ccc(OCCCCC[N+](C)(C)C)cc2)NC(=O)[C@H]2NC(=O)[C@H](CC(C)C)NC(=O)[C@H](Cc3c[nH]c4c(C)cccc34)NC(=O)[C@H]([C@@H](C)O)NC(=O)[C@H](CC(=O)N(C)C)NC(=O)[C@@H](NC(=O)CCOCCOCC[N+](C)(C)C)C(C)(C)SSC2(C)C)CCOCC1)C(=O)N[C@@H](CC(N)=O)C(=O)N[C@@H](Cc1cccnc1)C(=O)N(C)CC(=O)N(C)C [compound 489, cPEG3aCO-Pen(3)-N(N(Me)2)-T-7MeW-L-Pen(3)-TMAPF-2Nal-THP-K(NMeAc)-N-3Pya-Sar-CON(Me)2] ({Me3N+(CH2)2O(CH2)2O(CH2)2CO}-[Pen]D(NMe2)T[Trp(7-Me)]L[Pen]Y(X3)[2Nal][Thp][Lys(Me)](Ac)N[3Pal][Sar]-NMe2; disulfide 1-6)	164 A^2	3.7 nM

The next compounds have a lower IC50 [2] than those just listed; values first:

EPSA [1]	IC50 [2]	Compound
150 A^2	2.1 nM	CC(=O)N(C)CCCC[C@@H]1NC(=O)[C@H](Cc2c[nH]c3c(C)cccc23)NC(=O)[C@H]([C@@H](C)O)NC(=O)[C@H](CC(=O)N(C)C)NC(=O)[C@@H](NC(=O)CCOCCOCCNC(=N)N)C(C)(C)SSC(C)(C)[C@@H](C(=O)N[C@@H](Cc2ccc(OCCOCCOCC[N+](C)(C)C)cc2)C(=O)N[C@@H](Cc2ccc3ccccc3c2)C(=O)NC2(C(=O)N[C@@H](CCCCN(C)C(C)=O)C(=O)N[C@@H](CC(N)=O)C(=O)N[C@@H](Cc3cccnc3)C(=O)N(C)CC(=O)N(C)C)CCOCC2)NC1=O [compound 406, cPEG3gCO-Pen(3)-N(N(Me)2)-T-7MeW-K(NMeAc)-Pen(3)-APEG3F-2Nal-THP-K(NMeAc)-N-3Pya-Sar-CON(Me)2] (X11-[Pen]D(NMe2)T[Trp(7-Me)][Lys(Me)](Ac)[Pen]Y(CH2CH2OCH2CH2OCH2CH2NMe3+)[2Nal][Thp][Lys(Me)](Ac)N[3Pal][Sar]-NMe2; disulfide 1-6)
167 A^2	3.4 nM	CC(=O)NCCCC[C@@H]1NC(=O)[C@H](Cc2c[nH]c3c(C)cccc23)NC(=O)[C@H]([C@@H](C)O)NC(=O)[C@H](CC(N)=O)NC(=O)[C@@H](NC(=O)CCOCCOCC[N+](C)(C)C)C(C)(C)SSC(C)(C)[C@@H](C(=O)N[C@@H](Cc2ccc(-n3cc(C[N+](C)(C)C)nn3)cc2)C(=O)N[C@@H](Cc2ccc3ccccc3c2)C(=O)NC2(C(=O)N[C@@H](CCCCNC(C)=O)C(=O)N[C@@H](CC(N)=O)C(=O)N[C@@H](Cc3cccnc3)C(=O)N(C)CC(N)=O)CCOCC2)NC1=O [compound 438, cPEG3aCO-Pen(3)-N-T-7MeW-K(Ac)-Pen(3)-F(4TzlTMA1)-2Nal-THP-K(Ac)-N-3Pya-Sar-CONH2] ({Me3N+(CH2)2O(CH2)2O(CH2)2CO}-[Pen]NT[Trp(7-Me)]K(Ac)[Pen][X16][2Nal][Thp]K(Ac)N[3Pal][Sar]-NH2; disulfide 1-6)
